The target in the assay is R132H mutant IDH1 enzyme (Homo sapiens (Human), UniProt O75874, R132H). Kind of assay: R132H IDH1 Enzymatic Assay. The format is biochemical. The settings on record: 1.5 nM final, 30 min preincubation, 60 min reaction, Kinase-GLO luminescence. As to the method:
R132H IDH1 Enzymatic Assay
Each test compound (10 mM stock in DMSO) is diluted in DMSO to make a 10-point, 3-fold dilution series. 125 nL of each dilution or DMSO alone is dispensed to a 384-well Greiner Lumitrac 200 assay plate using an Echo® Liquid Handler. To each well of the plate is added 20 uL of enzyme in assay buffer or assay buffer alone. Assay buffer consists of 50 mM sodium phosphate, pH 7.0, 50 mM magnesium chloride, 50 mM sodium chloride, and 0.01% (w/v) bovine serum albumin. When present, the R132H mutant IDH1 enzyme is at a working concentration of 1.875 nM (final concentration in assay of 1.5 nM). The assay plate is allowed to incubate for 30 minutes at room temperature and 5 uL of 5× substrate mixture (2.5 uM nicotinamide adenine dinucleotide phosphate, 100 uM adenosine diphosphate, 7.5 mM glyceraldehyde-3-phosphate, 7.5 ug/mL of spinach glyceraldehyde-3-phosphate dehydrogenase, 25 nM phosphoglycerate kinase, and 5 mM alpha-ketoglutarate in assay buffer) is added to all wells. The reaction plate is incubated for 60 minutes followed by addition of 25 uL of Promega Kinase-GLO reagent to all wells and 10-minute incubation.
Luminescence is measured using a PerkinElmer Envision plate reader. The percent activity of each dilution is determined as the ratio of background corrected signal to the background corrected signal of wells receiving only DMSO. IC50 values are determined by fitting percent activity data to a four-parameter logistic dose response equation. The IC50 values of the exemplified compounds are included in Table 8.
(In general: In Kinase-Glo more light means more ATP remaining.)
Sequence of R132H mutant IDH1 enzyme (O75874 whole entry R132H): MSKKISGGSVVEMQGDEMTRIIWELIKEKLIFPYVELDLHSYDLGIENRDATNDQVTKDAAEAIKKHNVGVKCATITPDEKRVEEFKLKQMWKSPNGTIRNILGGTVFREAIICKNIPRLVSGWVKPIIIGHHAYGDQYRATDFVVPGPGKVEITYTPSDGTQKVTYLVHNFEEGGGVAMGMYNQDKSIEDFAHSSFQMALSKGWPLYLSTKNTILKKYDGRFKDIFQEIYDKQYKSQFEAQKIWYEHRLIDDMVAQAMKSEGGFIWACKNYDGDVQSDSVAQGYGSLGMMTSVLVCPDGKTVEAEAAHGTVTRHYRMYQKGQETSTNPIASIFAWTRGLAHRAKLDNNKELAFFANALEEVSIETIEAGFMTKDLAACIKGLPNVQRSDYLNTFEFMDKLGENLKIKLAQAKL
One may read the IC50 as the concentration that inhibits the measured activity by half. With `CC(C)O[C@H]1CC[C@H](C(=O)N2Cc3cc(F)cnc3Nc3cc(F)c(N4CC5(CCCOC5)C4)cc32)CC1` [Example 25, [3,9-difluoro-8-(6-oxa-2-azaspiro[3.5]non-2-yl)-5,11-dihydro-6H-pyrido[2,3-b][1,5]benzodiazepin-6-yl][trans-4-(propan-2-yloxy)cyclohexyl]methanone], half-maximal inhibition (IC50) required 7.8 nM.

For `CC(C)O[C@H]1CC[C@H](C(=O)N2Cc3cc(F)cnc3Nc3cc(F)c(N4C5CCC4COC5)cc32)CC1` [Example 26, [3,9-difluoro-8-(3-oxa-8-azabicyclo[3.2.1]oct-8-yl)-5,11-dihydro-6H-pyrido[2,3-b][1,5]benzodiazepin-6-yl][trans-4-(propan-2-yloxy)cyclohexyl]methanone], the IC50 was 13.8 nM.

As to `O=C(C1CCN(CC(F)(F)F)CC1)N1Cc2cccnc2Nc2cc(F)c(N3C[C@@H]4C[C@H]3CO4)cc21` [Example 27, (8-((1S,4S)-2-oxa-5-azabicyclo[2.2.1]heptan-5-yl)-9-fluoro-5,11-dihydro-6H-benzo[b]pyrido[2,3-e][1,4]diazepin-6-yl)(1-(2,2,2-trifluoroethyl)piperidin-4-yl)methanone], the midpoint of inhibition, the IC50, lay at 27.5 nM.

Take `O=C(C1CCN(CC(F)(F)F)CC1)N1Cc2cccnc2Nc2cc(F)c(N3[C@@H]4CO[C@H]5[C@@H]4OC[C@H]53)cc21` [Example 28, (9-fluoro-8-((3R,3aR,6R,6aR)-hexahydro-3,6-epiminofuro[3,2-b]furan-7-yl)-5,11-dihydro-6H-benzo[b]pyrido[2,3-e][1,4]diazepin-6-yl)(1-(2,2,2-trifluoroethyl)piperidin-4-yl)methanone]: the IC50 was determined as 27.6 nM.

Consider `O=C(C1CCN(CC(F)(F)F)CC1)N1Cc2cc(F)cnc2Nc2cc(F)c(N3CC4CCC3CO4)cc21` (stereo not shown) [Example 29, (8-(2-oxa-5-azabicyclo[2.2.2]octan-5-yl)-3,9-difluoro-5,11-dihydro-6H-benzo[b]pyrido[2,3-e][1,4]diazepin-6-yl)(1-(2,2,2-trifluoroethyl)piperidin-4-yl)methanone], for which the midpoint of inhibition, the IC50, lay at 9.9 nM.

The compound `CO[C@H]1C[C@H]2CC[C@@H](C1)N2c1cc2c(cc1F)Nc1ncc(F)cc1CN2C(=O)C1CCN(CC(F)(F)F)CC1` [Example 30, (3,9-difluoro-8-((1R,3r,5S)-3-methoxy-8-azabicyclo[3.2.1]octan-8-yl)-5,11-dihydro-6H-benzo[b]pyrido[2,3-e][1,4]diazepin-6-yl)(1-(2,2,2-trifluoroethyl)piperidin-4-yl)methanone] gave an IC50 of 14.1 nM.

`O=C(C1CCN(CC(F)(F)F)CC1)N1Cc2cc(F)cnc2Nc2cc(F)c(N3C[C@H]4CC[C@@H]3CO4)cc21` [Example 31, (8-((1R,4R)-2-oxa-5-azabicyclo[2.2.2]octan-5-yl)-3,9-difluoro-5,11-dihydro-6H-benzo[b]pyrido[2,3-e][1,4]diazepin-6-yl)(1-(2,2,2-trifluoroethyl)piperidin-4-yl)methanone] gave an IC50 of 18 nM.

The compound `O=C(C1CCN(CC(F)(F)F)CC1)N1Cc2cc(F)cnc2Nc2cc(F)c(N3C[C@@H]4CC[C@H]3CO4)cc21` [Example 32, (8-((1S,4S)-2-oxa-5-azabicyclo[2.2.2]octan-5-yl)-3,9-difluoro-5,11-dihydro-6H-benzo[b]pyrido[2,3-e][1,4]diazepin-6-yl)(1-(2,2,2-trifluoroethyl)piperidin-4-yl)methanone] had an IC50 of 18.1 nM.

`CC(C)O[C@H]1CC[C@H](C(=O)N2Cc3cc(F)cnc3Nc3ccc([C@H]4COCCO4)cc32)OC1` [Example 33, (8-((S)-1,4-Dioxan-2-yl)-3-fluoro-5,11-dihydro-6H-benzo[b]pyrido[2,3-e][1,4]diazepin-6-yl)((2R,5S)-5-isopropoxytetrahydro-2H-pyran-2-yl)methanone]: the IC50 was 21.8 nM.

`CC(C)O[C@H]1CC[C@H](C(=O)N2Cc3cc(F)cnc3Nc3ccc([C@@H]4COCCO4)cc32)OC1` [Example 34, (8-((R)-1,4-dioxan-2-yl)-3-fluoro-5,11-dihydro-6H-benzo[b]pyrido[2,3-e][1,4]diazepin-6-yl)((2R,5S)-5-isopropoxytetrahydro-2H-pyran-2-yl)methanone]: half-maximal inhibition (IC50) was put at 23.4 nM.

`CC(C)O[C@H]1CC[C@H](C(=O)N2Cc3cccnc3Nc3cc(F)c(C4COCCO4)cc32)OC1` (stereo partly drawn) [Example 37, (8-(1,4-dioxan-2-yl)-9-fluoro-5,11-dihydro-6H-benzo[b]pyrido[2,3-e][1,4]diazepin-6-yl)((2R,5S)-5-isopropoxytetrahydro-2H-pyran-2-yl)methanone] showed an IC50 of 36.9 nM.

`CC(C)O[C@H]1CC[C@H](C(=O)N2Cc3cccnc3Nc3cc(F)c(C4COCCO4)cc32)OC1` (stereo partly drawn) [Example 38, (8-(1,4-dioxan-2-yl)-9-fluoro-5,11-dihydro-6H-benzo[b]pyrido[2,3-e][1,4]diazepin-6-yl)((2R,5S)-5-isopropoxytetrahydro-2H-pyran-2-yl)methanone] returned an IC50 of 36 nM.

For `CO[C@H]1C[C@H]2CC[C@@H](C1)N2c1ccc2c(c1)N(C(=O)[C@H]1CC[C@H](OC(C)C)CO1)Cc1cc(F)cnc1N2` [Example 39, (3-fluoro-8-((1R,3S,5S)-3-methoxy-8-azabicyclo[3.2.1]octan-8-yl)-5,11-dihydro-6H-benzo[b]pyrido[2,3-e][1,4]diazepin-6-yl)((2R,5S)-5-isopropoxytetrahydro-2H-pyran-2-yl)methanone], the IC50 was 10.4 nM.

`CC(C)O[C@H]1CC[C@H](C(=O)N2Cc3cc(F)cnc3Nc3ccc(N4CC5(CCCOC5)C4)cc32)OC1` [Example 40, (3-fluoro-8-(6-oxa-2-azaspiro[3.5]nonan-2-yl)-5,11-dihydro-6H-benzo[b]pyrido[2,3-e][1,4]diazepin-6-yl)((2R,5S)-5-isopropoxytetrahydro-2H-pyran-2-yl)methanone] gave an IC50 of 25.5 nM.

The compound `CC(C)O[C@H]1CC[C@H](C(=O)N2Cc3cc(F)cnc3Nc3ccc(N4C[C@H]5COC[C@@H](C4)O5)cc32)OC1` [Example 41, (8-((1R,5S)-3,9-dioxa-7-azabicyclo[3.3.1]nonan-7-yl)-3-fluoro-5,11-dihydro-6H-benzo[b]pyrido[2,3-e][1,4]diazepin-6-yl)((2R,5S)-5-isopropoxytetrahydro-2H-pyran-2-yl)methanone] had an IC50 of 21 nM.

`CC(C)O[C@H]1CC[C@H](C(=O)N2Cc3cc(F)cnc3Nc3ccc(NCC4(CCl)CCCOC4)cc32)OC1` (stereo partly drawn) [Example 42, (8-(((3-(chloromethyl)tetrahydro-2H-pyran-3-yl)methyl)amino)-3-fluoro-5,11-dihydro-6H-benzo[b]pyrido[2,3-e][1,4]diazepin-6-yl)((2R,5S)-5-isopropoxytetrahydro-2H-pyran-2-yl)methanone] displayed an IC50 of 13.6 nM.

`CCS(=O)(=O)N1CCC(C(=O)N2Cc3cc(F)cnc3Nc3ccc(N4CC5CCC4CO5)cc32)CC1` (stereo not shown) [Example 43, (8-(2-oxa-5-azabicyclo[2.2.2]octan-5-yl)-3-fluoro-5,11-dihydro-6H-benzo[b]pyrido[2,3-e][1,4]diazepin-6-yl)(1-(ethylsulfonyl)piperidin-4-yl)methanone]: it took 87 nM to reach half-maximal inhibition (IC50).

As for `CC(C)O[C@H]1CC[C@H](C(=O)N2Cc3cc(F)cnc3Nc3cc(F)c(N4CC5CCC4CO5)cc32)OC1` (stereo partly drawn) [Example 44, (8-(2-oxa-5-azabicyclo[2.2.2]octan-5-yl)-3,9-difluoro-5,11-dihydro-6H-benzo[b]pyrido[2,3-e][1,4]diazepin-6-yl)((2R,5S)-5-isopropoxytetrahydro-2H-pyran-2-yl)methanone], the IC50 is 11.4 nM.

In turn, `CC(C)O[C@H]1CC[C@H](C(=O)N2Cc3cc(F)cnc3Nc3cc(F)c(N4CC5(CCCOC5)C4)cc32)OC1` [Example 45, (3,9-Difluoro-8-(6-oxa-2-azaspiro[3.5]nonan-2-yl)-5H-benzo[b]pyrido[2,3-e][1,4]diazepin-6(11H)-yl)((2R,5S)-5-isopropoxytetrahydro-2H-pyran-2-yl)methanone] yielded an IC50 of 18.3 nM.

For the compound `CC(C)O[C@H]1CC[C@H](C(=O)N2Cc3cc(F)cnc3Nc3cc(F)c(N4C[C@@H]5C[C@H]4CO5)cc32)OC1` [Example 46, (8-((1S,4S)-2-oxa-5-azabicyclo[2.2.1]heptan-5-yl)-3,9-difluoro-5,11-dihydro-6H-benzo[b]pyrido[2,3-e][1,4]diazepin-6-yl)((2R,5S)-5-isopropoxytetrahydro-2H-pyran-2-yl)methanone], the IC50 is 17.9 nM.

`CO[C@H]1C[C@H]2CC[C@@H](C1)N2c1cc2c(cc1F)Nc1ncc(F)cc1CN2C(=O)[C@H]1CC[C@H](OC(C)C)CO1` [Example 47, (3,9-difluoro-8-((1R,3S,5S)-3-methoxy-8-azabicyclo[3.2.1]octan-8-yl)-5,11-dihydro-6H-benzo[b]pyrido[2,3-e][1,4]diazepin-6-yl)((2R,5S)-5-isopropoxytetrahydro-2H-pyran-2-yl)methanone] had an IC50 of 15.8 nM.

As to `CC(C)O[C@H]1CC[C@H](C(=O)N2Cc3cc(F)cnc3Nc3ccc(N4C[C@H]5CC[C@@H]4CO5)cc32)OC1` [Example 48, (8-((1R,4R)-2-oxa-5-azabicyclo[2.2.2]octan-5-yl)-3-fluoro-5,11-dihydro-6H-benzo[b]pyrido[2,3-e][1,4]diazepin-6-yl)((2R,5S)-5-isopropoxytetrahydro-2H-pyran-2-yl)methanone], 10 nM corresponded to half-maximal inhibition (IC50).

(Values after patent publication US10399972B2, “Tricyclic compounds as inhibitors of mutant IDH enzymes” (Merck Sharp & Dohme Corp., priority 2015, dated 2019).)
